Entries after “also recorded” stand apart in the source; their conditions may differ. Like-named read-outs stand apart in the source and are kept apart here.
Columns and labels:
Format in all cases: cell-based
[1] = system: CYP3A4-overexpressing HepG2 cells; assay: Flow cytometric cell cycle analysis; details: IC50 concentration, 24 h; for S-phase cells population: control 12.47 ± 0.83%; for cells in G2/M phase: control 18.70 ± 0.69%
Protocol: After 24 h of incubation, cells were fixed with ethanol and stored at −20 °C overnight. […] The measurement was performed using a BD LSRFortessa™ Cell Analyzer (Becton–Dickinson, Heidelberg, Germany). The results were analyzed using FlowJo software (Celeza, Olten, Switzerland).

[2] = system: CYP3A4-overexpressing HepG2 cells; assay: RNA-sequencing and gene set enrichment analysis; details: IC50 concentration, 24 h; for number of 'DNA-templated DNA replication' genes influenced by only one compound: Venn diagram; for activated pathway (gene set enrichment, GO Biological Process) / number of genes affected in 'nuclear chromosome segregation' pathway / number of genes involved in 'inflammatory response' pathway / number of genes targeted in 'DNA-templated DNA replication' pathway / suppressed pathway (gene set enrichment, GO Biological Process): vs DMSO control
Protocol: Aliquots of 5 × 10^5 CYP3A4-overexpressing HepG2 cells were seeded into six-well-plates 24 h before treatment. Cells were treated with previously calculated IC50 concentrations of the compounds of interest. Control (ctrl) cells were treated with 0.2% DMSO. After 24 h incubation, the cells were harvested. RNA extraction was performed with the […] RNA Mini Kit (Invitek Molecular GmbH, Berlin, Germany), according to the manufacturer's instruction. Briefly, the cell pellet was lysed with 350 μL Lysis Solution and treated with β-mercaptoethanol. […] After several washing steps, RNA was eluted with 60 μL of Elution Buffer R and the concentration and purity measured with NanoDrop. Next-generation sequencing was conducted by […] GmbH, Mainz, Germany. The quality of the extracted RNA was verified by the company with a 2100 Bioanalyzer system (Agilent Technologies, CA, USA). After mRNA isolation and library preparation using the NEBNext^© UltraTM II Directional RNA Library Prep Kit (New England Biolabs, MA, USA), RNA sequencing of around 25 mio PE reads (2 × 12.5 M reads, 2 × 150 nt) was performed with the Illumina NextSeq 2000TM system. Each treatment and control group included two replicates. Quality control on the sequencing data was performed with the FastQC tool (0.12.0, https://www.bioinformatics.babraham.ac.uk/projects/fastqc/). Transcript abundance estimates were computed with Salmon (version 1.5.0) (Patro et al. [2017]) with a transcriptome index generated from the GENCODE (version 38), and subsequently summarized to gene level with the […] package (version 1.16.0) (Love et al. [2020]). The exploration, modelling, and interpretation of the expression data followed previously described protocols (Ludt et al. [2022]). Exploratory data analysis was executed with the pcaExplorer package (version 2.24.0) (Marini and Binder [2019]). Differential expression analysis was performed with DESeq2 package (version 1.38.3) (Love et al. [2014]), setting the false discovery rate (FDR) cutoff to 0.05. Accurate estimation of the effect sizes (described as log2 fold change) was finalized using the […] shrinkage estimator (version 1.20.0) (Zitovsky and Love [2020]). Subsequent analyses included Gene Ontology pathway enrichment by topGO (version 2.50.0) (Alexa et al. [2006])-using all expressed genes as background dataset and the ideal package (version 1.22.0) (Ludt et al. [2022])-and by clusterProfiler (version 4.6.0) (Wu et al. [2021]) with default settings using the log fold change as input. […] [2021]). Gene expression profiles were plotted as heatmaps (color-coded standardized Z scores for the expression values, after variance stabilizing transformation) to simplify comparison across samples.

[3] = Cytotoxicity (resazurin) growth inhibition assay; details: human
Protocol: The cytotoxicity of six compounds selected from in-silico screening was analyzed through a resazurin assay. Aliquots of 10^4 CYP3A4-overexpressing HepG2 cells were seeded per well into 96-well plates. Cells were treated with different concentrations of the selected compounds ranging from 0.003 to 100 µM in a total volume of 200 µL for 72 h. Then, 20 µL/well of resazurin 0.01% w/v (Sigma Aldrich, Taufkirchen, Germany) was added. The fluorescence intensity was measured with the Infinite M200 Pro-plate reader (Tecan, Crailsheim, Germany). Dose–response curves were generated from three independent experiments for each compound and 50% inhibition concentrations (IC50) were calculated. The analysis was represented using Prism 6 GraphPad Software (La Jolla, CA, USA).

[4] = CYP3A4-overexpressing HepG2 cells, 72 h, resazurin, mean ± SD of three independent experiments, read-out: IC50
[5] = 72 h, resazurin, mean ± SD of three independent experiments, read-out: IC50

Compound | S-phase cells population [1] | cells in G2/M phase [1] | number of 'DNA-templated DNA replication' genes influenced by only one compound [2] | activated pathway (gene set enrichment, GO Biological Process) [2] | number of genes affected in 'nuclear chromosome segregation' pathway [2] | number of genes involved in 'inflammatory response' pathway [2] | number of genes targeted in 'DNA-templated DNA replication' pathway [2] | suppressed pathway (gene set enrichment, GO Biological Process) [2] | IC50 at 72 h [3, 4] | IC50 at 72 h [3, 5] | IC50 at 72 h [3]
Cc1cc(Cc2cc(C)cc(C3CCCCC3)c2O)c(O)c(C2CCCCC2)c1 [compound 6, 2,2′-methylene bis(6-cyclohexyl-4-methylphenol)] | 7.06 ± 5.94% | 25.77 ± 0.95% | 5 genes | response to nutrients levels; also recorded: regulation of extent of growth; also recorded: response to wounding; also recorded: inflammatory response; also recorded: cytokine production | 83 genes | 90 genes | 72 genes | regulation of chromosome segregation; also recorded: regulation of mitotic sister chromatid separation; also recorded: nuclear chromosome segregation; also recorded: chromosome organization | 18 ± 1.21 µM | – | –
O=C(OC1CCCCC1)c1ccccc1C(=O)OC1CCCCC1 [compound 1, dicyclohexyl phthalate] | – | – | – | – | – | – | – | – | – | 72.7 µM | –
CC(C)(C)CC(C)(C)c1ccc(O)c(-n2nc3ccccc3n2)c1 [compound 3, octrizole] | – | – | – | – | – | – | – | – | 63.8 ± 2.21 µM | – | –
CC(C)COC(=O)c1ccccc1C(=O)OCC(C)C [compound 2, diisobutyl phthalate] | – | – | – | – | – | – | – | – | – | > 100 µM | –
Cc1cc(Cc2cc(C)cc(C(C)(C)C)c2O)c(O)c(C(C)(C)C)c1 [compound 4, 2,2′-methylene bis(6-tert-butyl-4-methylphenol)] | 6.26 ± 1.31% | 26.70 ± 8.40% | 10 genes | icosanoid metabolic process; also recorded: anion transport; also recorded: response to metal ions; also recorded: regulation of growth; also recorded: response to cytokines; also recorded: inflammatory response | 103 genes | 76 genes | 78 genes | regulation of chromosome segregation; also recorded: regulation of mitotic sister chromatid separation; also recorded: nuclear chromosome segregation; also recorded: chromosome organization; also recorded: metaphase/anaphase transition of mitotic cell cycle; also recorded: response to vitamin | – | – | 17.4 µM
CC(c1cc(C(C)(C)C)cc(C(C)(C)C)c1O)c1cc(C(C)(C)C)cc(C(C)(C)C)c1O [compound 5, 1,1-bis(3,5-di-tert-butyl-2-hydroxyphenyl)ethane] | 10.88 ± 3.84% | 25.13 ± 2.25% | 8 genes | autophagy; also recorded: process utilizing autophagic mechanism; also recorded: response to endoplasmic reticulum stress; also recorded: cytokine production; also recorded: Golgi vesicle transport; also recorded: response to growth factors; also recorded: cellular response to growth factor stimulation | – | – | 68 genes | cholesterol metabolic process; also recorded: cholesterol biosynthetic process; also recorded: secondary alcohol biosynthetic process; also recorded: sterol metabolic process; also recorded: alcohol metabolic process; also recorded: small molecule metabolic process; also recorded: organic hydroxy compound metabolic process | 20 ± 1.68 µM | – | –
